Measurements from publication PMC10525927, “First Generation of Antioxidant Precursors for Bioisosteric Se-NSAIDs: Design, Synthesis, and In Vitro and In Vivo Anticancer Evaluation” (Antioxidants, 2023).

Tests used:
[1] = system: DU-145 prostate cancer cells; assay: MTT cell viability assay, DU-145; type: cell-based; conditions: mean ± SD
Protocol: (§1) The cell lines were purchased from the American Type Culture Collection (ATCC). The cancer cell lines DU-145, PC-3, T-47D, MDA-MB-231, H1299, and A549, and the non-tumorigenic cells (184B5 and BEAS-2B), were maintained in RPMI 1640 medium (Gibco, Alcobendas, Madrid, Spain) supplemented with 10% fetal bovine serum (FBS; Gibco) and 1% antibiotics (10.00 units/mL penicillin and 10.00 mg/mL streptomycin; Gibco). Colon cancer cells HT-29 and HCT-116 were cultured in McCoy’s 5A medium (Gibco) supplemented with 10% fetal bovine serum (FBS; Gibco) and 1% antibiotics (10.00 units/mL penicillin and 10.00 mg/mL streptomycin; Gibco). Cells were maintained in tissue culture flasks at 37 °C and 5% CO2. The culture medium was replaced every three days.
(§2) The antiproliferative activity and selectivity in vitro of the Se-NSAID derivatives were determined by the (3-(4,5-dimethylthiazol-2-yl)-2,5-diphenyltetrazolium bromide) (MTT) assay. Compounds were dissolved in DMSO at a concentration of 0.01 M and serial dilutions were prepared. The Se-NSAID derivatives were tested at seven concentrations ranging between 1 and 100 µM in the colon (HT-29 and HCT-116), prostate (DU-145 and PC-3), breast (MDA-MB-231 and T-47D), and lung (H1299 and A549) cancer cell lines. The non-tumorigenic breast (184B5) and lung (BEAS-2B) cell lines were also tested to assess the selectivity of the compounds following the same procedure. A total of 1 × 10^4 cells were seeded per well in 96-well plates and incubated at 5% CO2 and 37 °C for 24 h. Then, cells were treated with either DMSO or increasing concentrations of the corresponding Se-NSAID derivatives for 48 h. A volume of 20 µL of MTT (5 mg/mL) was added to each well 2.5 h before the termination point. At the end of the experiment, the medium was removed, and the resultant formazan crystals formed by mitochondrial reduction of MTT were dissolved in 50 µL of DMSO. Absorbance was measured at 550 nm. IC50, GI50, TGI, and LC50 values were calculated using OriginPro version 8.5.1. software by nonlinear curve fitting. Selectivity indexes (SI) were calculated as the ratio of the IC50 values determined for the nonmalignant and the tumoral cells in the breast (IC50 (184B5)/IC50 (MDA-MB-231) and IC50 (184B5)/IC50 (T-47D)) and lung (IC50 (BEAS-2B)/IC50 (H1299) and IC50 (BEAS-2B)/IC50 (A549)) cell lines. Data were obtained from at least three independent experiments performed in triplicates.

[2] = system: T-47D breast cancer cells; assay: MTT cell viability assay, T-47D; type: cell-based; conditions: 48 h, mean ± SD
Protocol: as §1, §2

[3] = system: BEAS-2B non-tumorigenic lung (bronchial epithelium) cells; assay: MTT cell viability assay, BEAS-2B; type: cell-based; conditions: 48 h, mean ± SD; for IC50: nonmalignant lung cells
Protocol: as §1, §2

[4] = system: HCT-116 colon cancer xenograft; assay: Tumor growth inhibition on HCT-116 colon cancer xenograft model; type: in vivo; conditions: 10 mg/Kg IP
Protocol: Female mice of 4–5 weeks of age (The Jackson Laboratory, Bar Harbor, ME, USA) were kept on the daily cycle of 12 h light/dark and received food and water ad libitum throughout the studies. All animal procedures were performed following the National Institutes of Health (NIH) Guide for the Care and Use of Laboratory Animals and protocols were approved by the Animal Care and Use Committee of the Penn State College of Medicine.
All mice were housed in quarantine for one week prior to the inoculation of the cancer cells. Female nude mice (4–5 weeks old) were subcutaneously injected (100 µL of PBS/flank) with 2.5 × 10^6 HCT-116 colon cancer cells in each flank. Two weeks after inoculation, mice were sorted randomly into treatment and control groups (five mice/group) such that the mean tumor volumes were similar between groups. […] Mice that were injected with only DMSO (vehicle) were used as negative controls. The body weight of animals and the tumor volume were monitored thrice weekly. Tumor volumes were calculated using the formula (L × W^2)/2, wherein L and W are the length and width of the tumor mass measured with a vernier caliper, respectively. At the end of the experiment, mice were sacrificed by euthanizing the animals by CO2 asphyxiation, and the tumors were excised and weighed. Inspection of major morphological changes in organs was also carried out. The antitumor effect was assessed by the tumor growth inhibition (TGI) and the relative increment ratio (T/C) parameters in the aspects of tumor volume and tumor weight, respectively. The TGI was calculated using the following formula: TGI (%) = [1 − (T − T0)/(C − C0)] × 100, wherein T and C are the final tumor volumes measured at the end of the treatment of compound-treated mice and vehicle-treated mice, respectively, whereas T0 and C0 are the tumor volumes measured at the beginning of the treatment of compound-treated mice and vehicle-treated mice, respectively. The T/C value was calculated as WT/WC × 100, wherein WT is the mean of tumor weight of the compound-treated mice, and WC is the mean of tumor weight of the vehicle-treated mice.

[5] = DPPH radical scavenging assay
Protocol: Briefly, the compounds were dissolved at a concentration of 1 mg/mL in absolute methanol, and a dilution was prepared. […] Then, 100 µL of the DPPH solution was added to 100 µL of the compounds’ solution to a final concentration of 0.03 mg/mL or 0.06 mg/mL, and the decolorization of the purple radical to the yellowish reduced form was followed by recording the absorbance at 517 nm. Ascorbic acid (Asc) and Trolox were used as positive controls. Both of them, Asc and Trolox, were purchased from Sigma-Aldrich. Determinations were recorded at eight different time intervals from 0 to 120 min on a BioTeck PowerWave XS spectrophotometer, and the data were collected using KCJunior version 1.41. software. All the measurements were carried out in triplicate. Results are expressed as the percentage of the radical scavenged, calculated using the following formula: % DPPH radical scavenging = [(Acontrol − Asample)/Acontrol] × 100, wherein Acontrol refers to the absorbance of the negative control and Asample refers to the absorbance of the tested compounds.

[6] = in vitro TGI concentration, Table S1

CC(C)Cc1ccc(C(C)C(=O)[Se][Se]C(=O)C(C)c2ccc(CC(C)C)cc2)cc1 (stereo not shown) [Compound 5, 2-(4-Isobutylphenyl)propanoic diselenoperoxyanhydride]
LD50 DU-145 ([1]; 48 h, Table S1): 9.0 ± 0.4 µM | IC50 ([1]; Homo sapiens, DU-145, 48 h): 7 ± 1.3 µM | GI50 ([1]; Homo sapiens, DU-145, 48 h, Table S1): 6 ± 1.3 µM | TGI DU-145 ([1]; in vitro TGI concentration, 48 h, Table S1): 7.3 ± 0.9 µM | LD50 T-47D ([2]; Table S1): 4.2 ± 0.3 µM | IC50 ([2]; Homo sapiens, T47D): 3.8 ± 0.2 µM | GI50 ([2]; Homo sapiens, T47D, Table S1): 1.8 ± 0.4 µM | TGI T-47D [2, 6]: 2.7 ± 0.3 µM | LD50 BEAS-2B ([3]; Table S1): 14.8 ± 4.7 µM | IC50 [3]: 15.9 ± 2.4 µM | GI50 ([3]; Homo sapiens, BEAS-2B, Table S1): 7.8 ± 2.3 µM | IC50 ([3]; Homo sapiens, BEAS-2B): 14 to 19 µM | TGI BEAS-2B [3, 6]: 9.8 ± 1.6 µM | TGI (tumor growth inhibition, tumor volume) ([4]; HCT-116 subcutaneous xenograft, female nude mice, 23 days of treatment, day 38, vs vehicle): 72% | T/C (relative increment ratio, tumor weight) ([4]; HCT-116 subcutaneous xenograft, female nude mice, end of treatment): 38% | body weight of the mice vs vehicle during treatment ([4]; HCT-116 xenograft mice): slight change | toxicity signs (morphological abnormalities in major organs) ([4]; HCT-116 xenograft mice, end of experiment): no evident toxicity signs | DPPH radical scavenging activity ([5]; highest concentration tested (0.06 mg/mL), by the end of the experiment (120 min)): comparable to those of the positive controls | DPPH radical scavenging activity ([5]; lowest concentration tested (0.03 mg/mL)): 20%
